Test results reported in patent publication US5089516A, “1-phenyl-3,5-pyrazolidinedione hydroxystyrene compounds which have tyrosine kinase inhibiting activity” (Kanegafuchi Kagaku Kogyo Kabushiki Kaisha, priority 1987, dated 1992).

Key:
[1] = system: passive cutaneous anaphylaxis (PCA) reaction; test: Inhibitory activity against homologous PCA reaction in rats; format: in vivo, male Wistar rats; settings: Rattus norvegicus, oral, read-out: Inhibition rate (PCA reaction); for inhibition in vivo at 100 mg/kg: 1 hour before antigen
Description: (1) Inhibitory activity against homologous PCA reaction in rats
Antiserum was prepared according to I. Mota [Immunology, 7, 681(1964)]and the PCA reaction was conducted according to Maruyama et al. [Folia Pharmacologica Japonica, 74, 179(1978}].
An ovalbumin solution dissolved in physiological saline (2 mg/ml) was injected intramuscularly into both thighs of male Wistar rats weighing 200 to 260 g in a volume of 0.5 ml/100 g body weight, and pertussis vaccine (Bordetella pertussis, 2×10^10 /ml/ Chiba Serum Institute) was intraperitoneally administered at 1 ml/rat. Twelve days after sensitization, blood was taken from posterior aorta under ether anesthesia and serum was separated and stored at -80° C.
In each group, 4 male Wistar rats weighing 180 to 210 g were used. Back of the rats was shaved and reach 0.05 ml of antiserum diluted 32 times with physiological saline was injected intradermally at four sites on the back. After 48 hours, 1 ml of a mixture of ovalbumin (2 mg/ml) as an antigen and Evans blue (10 mg/ml) in the volume ratio of 1 : 1, which was dissolved in physiological saline was injected intravenously into the tail. Thirty minutes later, the rats were bled to death under ether anesthesia and the back skin of the rats was removed. The blue-dyed area formed by pigment exudation was measured and an inhibition rate (%) was calculated as compared with control according to the following equation. [formula]
A test compound suspended in a 2.5 % aqueous solution of gum arabic containing 0.2 % Tween 80 was administered orally in a volume of 0.5 m:/100 g body weight 1 hour before the injection of antigen. To the control group, only the vehicle was administered. Tranilast which was a positive control compound was administered orally 30 minutes before the injection of antigen.

[2] = target: T1, 5-lipoxygenase (Cavia porcellus, UniProt A0A286X958); test: 5-Lipoxygenase inhibiting activity (5-HETE formation, cytosol of peritoneal exudate cells); format: biochemical, Hartley guinea pigs; settings: 10 μM in the reaction mixture; read-out: Inhibition rate (5-lipoxygenase)
T1 construct: The cytosol fraction was used as an enzyme solution; from tissue; host or cells: peritoneal exudate cells of casein-injected Hartley guinea pigs, 105,000×g cytosol
T1 sequence (A0A286X958 1-674): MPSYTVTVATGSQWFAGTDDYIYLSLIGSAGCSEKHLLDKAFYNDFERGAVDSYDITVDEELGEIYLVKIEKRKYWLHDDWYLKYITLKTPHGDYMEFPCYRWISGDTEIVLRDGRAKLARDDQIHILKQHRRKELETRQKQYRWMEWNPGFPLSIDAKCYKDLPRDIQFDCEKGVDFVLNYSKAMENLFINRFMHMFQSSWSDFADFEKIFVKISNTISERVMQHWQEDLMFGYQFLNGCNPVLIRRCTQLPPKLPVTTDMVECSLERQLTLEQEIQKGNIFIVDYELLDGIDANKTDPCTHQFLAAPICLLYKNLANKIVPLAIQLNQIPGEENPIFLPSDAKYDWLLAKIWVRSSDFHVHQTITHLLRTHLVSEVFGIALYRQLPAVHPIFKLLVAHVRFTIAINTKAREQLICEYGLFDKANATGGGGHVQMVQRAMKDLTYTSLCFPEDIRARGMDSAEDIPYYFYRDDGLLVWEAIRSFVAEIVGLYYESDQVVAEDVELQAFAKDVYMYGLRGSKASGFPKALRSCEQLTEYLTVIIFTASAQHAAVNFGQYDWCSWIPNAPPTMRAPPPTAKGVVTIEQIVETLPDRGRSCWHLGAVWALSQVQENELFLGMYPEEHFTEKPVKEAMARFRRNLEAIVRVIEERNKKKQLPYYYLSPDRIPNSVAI
Description: 5-Lipoxygenase inhibiting activity of the compound of the present invention was measured referring to the method for measuring 5-lipoxygenase activity by K. Ochi et al. [Journal of Biological Chemistry (J. Biol. Chem.), 258, 5754(1983)].
Sterilized 2% solution of casein (pH 7) was injected intraperitoneally into Hartley guinea pigs in a volume of 5 ml/100 g body weight. Fifteen hours later, the guinea pigs were killed and peritoneal exudate cells thereof were collected. After the exudate cells were washed with 17 mM Tris--HCl buffer (pH 7.4) containing 0.74% ammonium to remove contaminating erythrocytes in the exudate cells suspension, the cells were washed with buffer A (130 mM NaCl, 1 mM EDTA, 25 mM sodium phosphate, pH 7.4). The washed cells were suspended in buffer B (50 mM sodium phosphate, 1 mM EDTA, 0.1% gelatin, pH 7.4) at 10^8 cells/ml, sonicated and centrifuged at 10,000×g for 20 minutes under the cold atmosphere. The obtained supernatant was further centrifuged at 105,000×g for 60 minutes under the cold atmosphere. The cytosol fraction was used as an enzyme solution.
The enzyme solution was preincubated with the […] in the presence of 1 mM CaCl2, 1 mM reduced gluthathione (GSH) and 2 mM ATP at 30° C. for 5 minutes in 0.2 ml of a reaction mixture and the mixture was further incubated at 30° C. for 5 minutes by adding 20 μM [1-^14 C] arachidonic acid (0.1 μCi) thereto. The test compounds were dissolved in ethanol to give the reaction mixture containing 2% ethanol as a final concentration. Only ethanol was added to the reaction mixture as a control group.
To the reaction mixture were added 2.5 ml of a mixture of chloroform and methanol (2/1 by volume) and 0.3 ml of 40 mM citric acid to stop the reaction. The mixture was vortexed and an organic solvent layer was evaporated to dryness under nitrogen gas. After dissolving the dried organic layer in a fixed amount of the mixture of chloroform and methanol (2/1 by volume), it was spotted on a silica gel plate (Kiesel gel 60F254, E. Merck) and products were separated using a developer (the organic solvent layer of ethyl acetate/water/2,2,4-trimethylpentane/acetic acid=11/10/5/2 by volume). After the radioactive position of the product was determined by means of a radioautography, an area equivalent to that of 5-hydroxyeicosatetraenoic acid (hereinafter referred to as "5-HETE") was scraped off, and then its radioactivity was measured with a liquid scintillation counter. With regarding the amount of the generated 5-HETE as the 5-lipoxygenase inhibiting activity, the inhibition rate (%) in comparison with the control group was calculated according to the following equation. [formula]

[3] = target: T2, epidermal growth factor receptor-tyrosine kinase complex (Homo sapiens, UniProt P00533); test: Tyrosine kinase inhibiting activity (A-431 membrane preparation, EGF-stimulated); format: biochemical; settings: read-out: Tyrosine kinase inhibition rate; for inhibition at 10 µM: 10 μM in the reaction mixture; for inhibition at 1 µM: 1 μM in the reaction mixture
T2 construct: The membrane preparation was employed in the following measurement without solubilization; endogenous in cells; host or cells: A-431 (ATCC CRL1555), membrane preparation, not solubilized
Description: Tyrosine kinase inhibiting activity of the compound of the present invention was measured referring to a method for measuring tyrosine kinase activity by G. Carpenter or by S. Cohen et al. [J. Biol. Chem., 254, 4884(1979); J. Biol. Chem., 257, 1528(1982)].
Cell line A-431 derived from human carcinoma (ATCC CRL1555) was cultured at 37° C. under the condition of 5% CO2 in Dulbecco's modified Eagle's medium (made by NISSUE PHARMACEUTICAL CO., LTD.) containing 10% by volume fetal bovine serum, 50 μg/ml of streptomycin, 50 IU/ml of penicillin G and 50 μg/ml of kanamycin. […] The membrane preparation was employed in the following measurement without solubilization.
A test compound dissolved in dimethylsulfoxide (hereinafter referred to as "DMSO") was added to a mixture of 20 mM of N-2-hydroxyethylpiperazine-N'-2-ethanesulfonic acid buffer (pH 7.4), 1 mM of MnCl2, 7.5 μg of bovine serium albumin and the membrane preparation (10 μg as protein). After incubation at 0° C. for 5 minutes, 100 ng of epidermal growth factor (hereinafter referred to as "EGF") was added thereto and the mixture was further incubated at 0° C. for 15 minutes. [γ-^32 P]ATP (3000 Ci/mmol, 0.1 μCi) was added thereto to make final volume of 70 μl. After incubation at 0° C. for 15 minutes, 50 μl of the reaction mixture was soaked into Whatman 3 MM filter paper (made by Whatman Ltd.) and immediately the reaction was stopped by an aqueous solution of 10% by weight trichloroacetic acid containing 10 mM sodium pyrophosphate. The filter paper was sufficiently washed with the same solution and then washed with ethanol, and dried. Radioactivity present in the filter paper was measured by liquid scintillation counter (A). Also, radioactivity was measured in case of the reaction without EGF (B), the reaction without the test compound (C), and the reaction without both EGF and the test compound (D) as a control.
Tyrosine kinase inhibition rate (%) was calculated by the following equation. [formula]

[4] = system: antigen-induced airway constriction; test: Inhibitory activity against antigen-induced airway constriction in actively sensitized guinea pigs; format: in vivo; settings: Cavia porcellus, iv, 3 minutes before antigen inhalation, read-out: Inhibition rate (airway constriction)
Description: (3) Inhibitory activity against antigen-induced airway constriction in actively sensitized guinea pigs
That is, the sensitized guinea pigs (5 guinea pigs/group) were provided with artificial respiration by inserting a tracheal cannula under urethane anesthesia (1.5 g/kg body weight, intraperitoneal administration), and then, gallamine at 1 mg/kg body weight was injected intravenously to stop spontaneous respiration of the guinea pigs. Inhalation of 0.5% aqueous solution of ovalbumin was conducted using a nebulizer for 1 minute to increase antigen-induced airway constriction, at the same time, airway pressure was recorded through a transducer. Test compound was administered into jugular vein (i.v.) of the guinea pig 3 minutes before the antigen inhalation or administered orally (p.o.) 2 hours before the antigen inhalation. As a positive control compound, theophylline which was a drug for anti-asthma was used. The effect of the compound was estimated by calculating the maximum value of airway constriction (%) in comparison with the control group, according to the following equation. [formula]

[5] = system: Nycobacterium smegmatis ATCC 607; test: Antibacterial activity (MIC) against acid-fast bacteria; format: cell-based; settings: 37° C., 40 to 42 hours
Description: As for acid-fast bacteria, after cultured in glycerol broth medium, there was prepared a bacterial suspension for inoculation containing about 10^6 of the bacteria per 1 ml of the medium. On the other hand, there were prepared some glycerol Czapek agar plating media with adding the test compounds, and thereto the bacterial suspension for inoculation was streaked.

[6] = system: antigen-induced anaphylactic shock death; test: Protecting effect against antigen-induced anaphylactic shock death in actively sensitized guinea pigs; format: in vivo, male guinea pigs; settings: Cavia porcellus, 1.5 h, oral, 30 minutes before antigen inhalation
Description: (2) Protecting effect against antigen-induced anaphylactic shock death in actively sensitized guinea pigs
Anaphylactic shock death caused by inhalation of antigen was observed according to John P. Devlin Pulmonary and Antiallergic Drugs, John Wiley & Sons, (1985)] employing actively sensitized guinea pigs.
Each 100 mg/kg of body weight ovalbumin dissolved in physiological saline was injected into gluteus and into peritoneal cavity of male guinea pigs weighing 250 to 350 g. Three days later, the animals were further injected intraperitoneally with ovalbumin (100 mg/kg body weight) to conduct booster. Those animals were employed for testing 3 to 4 weeks after the sensitization.
In each group, 4 or more actively sensitized guinea pigs were pretreated by subcutaneously injecting pyrilamine (1 mg/kg body weight) 30 minutes before antigen inhalation to suppress histamine-dependent response and propranolol (1 mg/kg body weight) to enhance the response induced by other than histamine 10 minutes before the antigen inhalation.
The animal was placed in a desiccator with a capacity of about […] and 0.5% aqueous solution of ovalbumin in the state of aerosol was inhaled with ultrasonic type nebulizer for five minutes. Anaphylactic shock death was observed and the animals survived for 90 minutes or more after antigen inhalation were estimated to be protected. All the animals of the control group died due to anaphylactic shock. The compounds of the present invention and therapeutic antiasthmatic agent (tranilast, theophylline) were administered orally 30 minutes before the antigen inhalation.

T2 sequence (P00533 25-1210, one chain of several): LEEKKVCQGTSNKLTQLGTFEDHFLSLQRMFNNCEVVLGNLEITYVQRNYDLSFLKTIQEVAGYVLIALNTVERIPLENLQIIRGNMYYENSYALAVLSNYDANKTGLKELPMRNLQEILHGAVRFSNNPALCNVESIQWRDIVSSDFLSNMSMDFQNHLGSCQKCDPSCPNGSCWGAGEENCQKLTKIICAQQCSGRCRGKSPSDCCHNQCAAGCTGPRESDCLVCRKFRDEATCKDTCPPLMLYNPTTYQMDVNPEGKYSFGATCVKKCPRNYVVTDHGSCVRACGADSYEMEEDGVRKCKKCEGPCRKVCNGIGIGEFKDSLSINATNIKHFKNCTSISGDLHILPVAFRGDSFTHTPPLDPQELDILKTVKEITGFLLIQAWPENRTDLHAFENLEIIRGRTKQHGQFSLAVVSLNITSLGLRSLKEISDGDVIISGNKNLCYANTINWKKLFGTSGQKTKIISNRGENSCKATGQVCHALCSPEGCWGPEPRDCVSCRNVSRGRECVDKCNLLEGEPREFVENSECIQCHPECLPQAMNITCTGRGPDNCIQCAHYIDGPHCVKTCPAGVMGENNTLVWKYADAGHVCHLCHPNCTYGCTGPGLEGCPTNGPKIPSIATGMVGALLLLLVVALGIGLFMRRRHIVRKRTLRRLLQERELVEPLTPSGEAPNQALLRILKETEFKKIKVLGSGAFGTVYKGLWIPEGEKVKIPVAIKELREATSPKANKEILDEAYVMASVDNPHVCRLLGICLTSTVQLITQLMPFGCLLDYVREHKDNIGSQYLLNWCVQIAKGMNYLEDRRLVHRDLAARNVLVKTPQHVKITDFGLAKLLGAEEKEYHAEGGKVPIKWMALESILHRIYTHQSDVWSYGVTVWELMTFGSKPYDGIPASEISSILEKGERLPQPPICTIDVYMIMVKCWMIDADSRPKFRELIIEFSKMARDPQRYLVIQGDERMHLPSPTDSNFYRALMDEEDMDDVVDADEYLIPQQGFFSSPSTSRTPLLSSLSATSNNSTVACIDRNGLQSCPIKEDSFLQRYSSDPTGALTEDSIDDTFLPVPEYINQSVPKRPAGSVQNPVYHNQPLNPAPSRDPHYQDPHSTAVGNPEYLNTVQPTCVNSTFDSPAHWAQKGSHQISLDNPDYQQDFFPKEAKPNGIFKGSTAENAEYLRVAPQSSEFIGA

Row | SMILES | inhibition in vivo at 100 mg/kg [1] [%] | inhibition at 10 µM [2] [%] | inhibition at 10 µM [3] [%] | responders at 100 mg/kg [6] [%] | further results
1 | N#CC(=Cc1cc(O)c(O)c(Cc2ccccc2)c1)C(N)=O [Compound 23] | 29 | 85 | 60 |  | 
2 | CC(C)c1cc(C=C2SC(Nc3ccccc3)=NC2=O)cc(C(C)C)c1O [Compound 32] | 21 |  |  |  | inhibition in vivo at 2 mg/kg ([4]; 2 mg/kg): 23%; inhibition at 1 µM [3]: 74%; MIC [5]: ≤ 6 µg/mL
3 | CC(C)c1cc(C=C2SC(NCCc3ccccc3)=NC2=O)cc(C(C)C)c1O [Compound 34] | 48 |  |  |  | inhibition at 1 µM [3]: 63%; MIC [5]: ≤ 6 µg/mL
4 | CC(C)c1cc(C=C2SC(NCc3ccc(Cl)cc3)=NC2=O)cc(C(C)C)c1O [Compound 36] |  | 84 | 59 | 25 | 
5 | COc1ccc(CNC2=NC(=O)C(=Cc3cc(C(C)C)c(O)c(C(C)C)c3)S2)cc1 [Compound 38] |  | 88 | 85 | 25 | 
6 | Cn1c(=O)c2[nH]cnc2n(C)c1=O [theophylline, reference compound] |  |  |  |  | responders at 30 mg/kg ([6]; 30 mg/kg): 50%; inhibition in vivo at 1 mg/kg ([4]; 1 mg/kg): 31%
7 | COc1ccc(/C=C/C(=O)Nc2ccccc2C(=O)O)cc1OC [tranilast, reference compound] |  |  |  | 0 | inhibition in vivo at 300 mg/kg ([1]; 300 mg/kg, 30 minutes before antigen, positive control): 40%
